Laboratory results taken from patent US7485434B2, “Method for screening compounds for those that modulate transducers of regulated CREB activity” (The Salk Institute for Biological Studies, priority 2005, dated 2009).

How the values were obtained:
β cell = settings: organ transplant recipients receiving chronic immunosuppressive therapy; cited from earlier work
TORC2 [1] = experiment: TORC2 phosphorylation in primary rat hepatocytes (Western blot); type: cell-based; settings: primary rat hepatocytes
Text: FIG. 18B illustrates the effect of CHX on levels of phospho (Ser171) TORC2 in primary rat hepatocytes treated with glucagon over a variety of time points, shown in hours. Western blot assay indicates the levels of TORC2, phospho (Ser171) TORC2 and CREB.
Specifically, FIG. 19A, top, presents a Western blot showing the effect of US and SIK1 RNAi adenoviruses on the levels of SIK1 protein in rat hepatocytes. FIG. 19A, bottom, presents a Western blot assay with nondiscriminating TORC2 antiserum, showing the effect of SIK1 RNAi adenovirus on TORC2 dephosphorylation (compare P-TORC2 and TORC2 bands) following exposure of primary rat hepatocytes to glucagon (Gluc). The arrow identifies phosphorylated TORC2.
Cells were exposed to AICAR and FSK for 30 minutes. Lower mobility bands (arrow) indicate phosphorylated TORC2 polypeptides.
Rat primary hepatocytes were prepared from 200-300g of Sprague-Dawley rats by collagenase perfusion method as described previously (see Koo et al., 2004). 1×10^6 cells were plated in 6 well plates with medium 199 (Invitrogen, Carlsbad, Calif.) supplemented by 10% FBS, 10 units/ml penicillin, 10 μg/ml streptomycin, and 10 nM dexamethasone for 3-6 hours. After attachment, cells were infected with adenoviruses for 16 hours. Subsequently, cells were maintained in medium 199 without FBS and dexamethasone for 24 hours (for cDNA expression adenoviruses) or 48 hours (for RNAi adenoviruses) and […] forskolin or 100 nM glucagon for 2 hours unless noted otherwise. For experiments with cycloheximide, 10 μg/ml cycloheximide was added 30 minutes prior to the addition of 100 nM glucagon.
Like other signaling pathways, cAMP stimulates gluconeogenic gene expression with burst-attenuation kinetics (see Sasaki et al., 1984). Following exposure of primary hepatocytes to Forskolin, PEPCK mRNA levels became maximal after 2 hours, returning to near baseline after 4 hours (see FIG. 18A). […] Consistent with this, CHX pre-treatment potentiated gluconeogenic gene expression in primary rat hepatocytes exposed to glucagon 2-3 fold (see FIG. 18C). […]

[2] = tested on: gluconeogenic genes (PEPCK, PGC-1α, G6Pase); experiment: Q-PCR of gluconeogenic gene expression in primary rat hepatocytes; type: cell-based; settings: primary rat hepatocytes exposed to glucagon; CHX pre-treatment
Protocol: Specifically, FIG. 17A illustrates the effect of TORC2 on induction of gluconeogenic genes (PEPCK, PGC-1α, G6Pase) by FSK (10 μM, 2 hr) in cultured primary rat hepatocytes infected with TORC2 or control GFP adenovinus as indicated.
FIGS. 18A-18H illustrate that the induction of the AMP kinase family member SIK1 by CREB during fasting attenuates the gluconeogenic program. Specifically, FIG. 18A illustrates the time course of PEPCK gene expression in primary rat hepatocytes following exposure to FSK. mRNA levels were determined by Q-PCR analysis.
FIG. 18C illustrates the effect of CHX pretreatment on induction of gluconeogenic genes (PEPCK, PGC-1α, G6Pase) by glucagon in primary rat hepatocytes. Relative mRNA levels are shown.
FIG. 19B summarizes the effect of SIK1 RNAi on gluconeogenic gene expression in primary rat hepatocytes, presenting Q-PCR analysis showing the relative induction of PEPCK, PGC-1α, and G6Pase mRNAs by glucagon in cells infected with control (US) or SIK1 RNAi expressing adenoviruses.
FIG. 20D summarizes the effect of AlCAR on expression of gluconeogenic genes (PEPCK, PGC-1α) in primary rat hepatocytes. Cells infected with mutant Ser171Ala TORC2 (171) adenovinus indicated. Treatment with AICAR and FSK is shown.
Rat primary hepatocytes were prepared from 200-300g of Sprague-Dawley rats by collagenase perfusion method as described previously (see Koo et al., 2004). […]

CREB target gene NR4A2 = experiment: Quantitative PCR of CREB target gene NR4A2 in MIN6 insulinoma cells; type: cell-based
Protocol: FIG. 1B presents quantitative PCR (Q-PCR) analysis of the CREB target gene NR4A2 in MIN6 insulinoma cells exposed to glucose (20 mM) and/or exendin-4 (10 nM).
Cells were treated with cAMP agonist (Forskolin, 10 μM) and KCl (45 mM) or vehicle control. For glucose experiments, MIN6 cells were starved overnight in DME containing 2.75 mM glucose plus 16 mM mannitol and 10% FBS. The next day the medium was changed for the indicated times+inhibitor. Total RNA from treated MIN6 or HIT cells was extracted using an RNeasy mini-kit (Qiagen, Valencia, Calif.). 500 ng-1 μg of total RNA was used for generating cDNA with Superscript II enzyme (Invitrogen, Carlsbad, Calif.). cDNAs were analyzed by quantitative PCR using SYBR green PCR kit and an ABIPRISM 7700 Sequence detector (Perkin Elmer, Foster City, Calif.). All PCR data for CREB target NR4A2 (Conkright et al., 2003b) was normalized to ribosomal L32 or 36B4 expression in the corresponding sample.
Hamster insulinoma (HIT) cells were employed to test the relative effects of cAMP and calcium signals on CREB activity. Opening of voltage-sensitive L-type calcium channels in response to KC1 depolarization induced the CREB-dependent EVX-1 promoter (Conknight et al., 2003b) 5-fold in HIT cells, whereas addition of cAMP agonist stimulated the reporter 10-fold (see FIG. 1A). […]

TORC2 [3] = experiment: Immunofluorescence of TORC localization in ATYB1 fibroblasts; type: cell-based, human; settings: ATYB1 cells
Protocol: Specifically, FIG. 3A presents fluorescence microscopic analysis of Flag-tagged TORC2 in human ATYBI fibroblasts treated with forskolin (10 μM) or control vehicle for 30 minutes as indicated.
FIG. 3B illustrates the effect of exportin inhibitor leptomycin B (LMB) on nuclear targeting of TORC2 in transfected ATYB1 fibroblasts. DAPI staining is shown alongside to indicate nuclei.
FIG. 7C, top panels, illustrate the effect of SIK2 (or related family members) on TORC2 subcellular localization. Immunofluorescence microscopy is presented for ATYB1 cells transfected with Flagtagged TORC2 plus wild-type or PKA phosphorylation defective SIK2 (Ser587Ala) as indicated. DAP1 staining is shown below each panel. FIG. 7C, bottom panels, illustrate the effect of Ser171 Ala mutagenesis on cellular localization of TORC2. Treatment with forskolin is indicated.
FIG. 13, top panels, illustrates the cellular localization of endogenous TORC proteins in ATYBI cells using TORC specific antiserum. The effect of forskolin (10 μM, 30 minutes) and leptomycin B (LMB, 10 ng/ml, 2 hr) treatment is shown. DAP1 staining is shown below to visualize the nuclei. FIG. 13, bottom panel, illustrates the effect of LMB treatment on TORC1 localization in ATYBI cells transfected with flag-tagged TORC1 expression vector. TORC1 localization was followed using anti-flag antiserum. DAP1 staining is shown alongside. […]

TORC2 [4] = experiment: TORC2 localization, Ser171 phosphorylation and promoter recruitment in liver after IP injection; type: in vivo; settings: mice
CREB = CREB Ser133 phosphorylation in liver after IP injection (histochemical and Western blot); type: in vivo; settings: mice; intraperitoneal administration

C=CC[C@@H]1/C=C(\C)C[C@H](C)C[C@H](OC)[C@H]2O[C@@](O)(C(=O)C(=O)N3CCCC[C@H]3C(=O)O[C@H](/C(C)=C/[C@@H]3CC[C@@H](O)[C@H](OC)C3)[C@H](C)[C@@H](O)CC1=O)[C@H](C)C[C@@H]2OC [FK506]
β cell failure and diabetes (β cell): cause β cell failure and diabetes with high frequency

C[C@@H]1C[C@@H]([C@H](O)CC2CC(=O)NC(=O)C2)C(=O)[C@@H](C)C1 [cycloheximide]
effect on TORC2 Ser171 phosphorylation by glucagon at 3 hours (TORC2 [1]; CHX pre-treatment 10 μg/ml): blocked phosphorylation of TORC2 at Ser171 | potentiation of gluconeogenic gene expression [2]: 2-3 fold

O=C[C@H](O)[C@@H](O)[C@H](O)[C@H](O)CO [glucose]
induction of NR4A2 expression (CREB target gene NR4A2; high glucose (20 mM)): 5 fold

CCC(=C/[C@H](C)C/C=C/C(C)=C/[C@@H](C)C(=O)[C@@H](C)[C@H](O)[C@@H](C)C/C(C)=C/C(=O)O)/C=C/[C@@H]1OC(=O)C=C[C@@H]1C [leptomycin B]
time to nuclear accumulation of TORC (TORC2 [3]): 30 to 60 min | nuclear accumulation of TORC (TORC2 [3]; forskolin 10 μM or LMB 10 ng/ml): strongly enhanced nuclear accumulation

Exendin-4
NR4A2 mRNA levels enhanced (CREB target gene NR4A2; co-stimulation glucose (20 mM) plus exendin-4 (10 nM)): 35 fold

glucagon
recruitment of TORC2 to gluconeogenic genes (ChIP of liver tissue) (TORC2 [4]; 10 minutes after IP administration): promoted recruitment of TORC2 to gluconeogenic genes | TORC2 phosphorylation at Ser171 in liver (TORC2 [4]; IP administration): dephosphorylated | nuclear translocation of hepatic TORC2 (TORC2 [4]; IP administration): induced translocation of TORC2 to liver nuclei | time to translocation of TORC2 to liver nuclei (TORC2 [4]; IP administration): ≤ 10 min | CREB Ser133 phosphorylation in liver (CREB): promote CREB Ser133 phosphorylation in liver | time to CREB Ser133 phosphorylation in liver (CREB): ≤ 10 min | TORC2 phosphorylation at Ser171 (TORC2 [1]; 3 hours after stimulation): strongly induced
